Experimental data reported in a melting point compilation (Tetko et al.; mined from patent text by program, amines drawn as free bases though some values may be those of a salt).

Row | SMILES | melting point
1 | O=C(O)COc1cccc2c1Cc1sc(SCCC(c3ccccc3)c3ccccc3)nc1-2 | 100 to 103 °C
2 | CCN1c2ncc(COc3ccccc3)cc2C(=O)N(C)c2ccc(Cl)nc21 | 140 to 141 °C
3 | COc1cc2c(cc1OC)CN(CCCSc1ccc(NC(=O)c3cccc4c(=O)c5cccc(OC)c5[nH]c34)cc1)CC2 | 199 °C
4 | O=C(Oc1ccc(Oc2ccccc2)cc1)Oc1ccc([N+](=O)[O-])cc1 | 113 to 115 °C
5 | O=C1c2cccc3c([N+](=O)[O-])c(O)cc(c23)C(=O)N1O | 267 to 270 °C
6 | COc1cc2c(cc1C)CCC2c1cnc[nH]1 (stereo unspecified) | 68 to 70 °C
7 | CC(C)Cn1c(CNC(=O)OC(C)(C)C)c(-c2ccccc2)c2cc(C(N)=S)ccc2c1=O | 228 to 229 °C
8 | CNc1ccc(Oc2nc(OC)cc(OC)n2)c(C(=O)O)n1 | 172 to 174 °C
9 | O=C(c1ccc(O)cc1)c1cccc2[nH]ccc12 | 177 °C
10 | O=S1(=O)c2ccccc2C(c2ccccc2)N1CCCN1CCN(c2ccc(F)cc2)CC1 (racemic) | 182 °C
11 | O=C(C(Cl)=Cn1ccnc1)c1ccc(Cl)cc1Cl | 149 to 151 °C
12 | CNC(CO)CCOc1cccc2ccccc12 (stereo unspecified) | 101 to 102 °C
13 | NC(=S)c1cc(Oc2ccc(C(F)(F)F)cc2Cl)ccc1[N+](=O)[O-] | 152 °C
14 | Cc1ccc(S(=O)(=O)N(CCO)c2cc(C)cc([N+](=O)[O-])c2N)cc1 | 201 °C
15 | COc1ccc(C2=NN(Cc3ccc(C(=O)O)cc3)C(=O)[C@H]3CCCC[C@@H]23)cc1OC1CCCC1 (relative stereo) | 189 to 190 °C
16 | Cc1c(Sc2ccc(Cl)cc2)c2cc(NS(C)(=O)=O)ccc2n1CC(=O)O | 214 °C
17 | COc1ccc(CNc2nnc(Cl)c3ccc(C#N)cc23)cc1Cl | 213 to 214 °C
18 | CCC(CC)Oc1nc(C)nc(Nc2c(C)cc(C)cc2C)c1C(=O)O | 118 to 120 °C
19 | CC(C)=CCCN1C(=O)c2ccccc2C1=O | 95 to 97 °C

Row | SMILES | melting point
20 | CNC(=O)c1cc(N[C@@H]2c3ccccc3C[C@H]2O)c2nc(C)c(C)n2c1 (relative stereo) | 143 to 144 °C
21 | CC(SC1COC(c2cccc(C(=O)Nc3ccc(C#N)cc3)c2)OC1)C(O)(Cn1cncn1)c1ccc(F)cc1F (stereo unspecified) | 105 °C
22 | O=C(O)CC1CCc2[nH]c3ccccc3c2C1 (stereo unspecified) | 209 to 210 °C
23 | CCOC(OCC)C(N)=O | 47 to 51 °C
24 | CN(C)c1cccc(NC(=O)c2cccc(S(=O)(=O)N3CCCCCC3)c2)c1 | 178 to 180 °C
25 | CC(C)(C)c1cc(C=O)n(Cc2ccc(C(F)(F)F)cc2Cl)n1 | 147 to 149 °C
26 | CC(C)(NC=O)c1ccc(I)cc1 | 121 to 125 °C
27 | O=C(O)c1cc2ccc(C3OC(CO)C(O)C(O)C3O)cc2oc1=O (stereo unspecified) | 250 to 255 °C
28 | C[C@H]1[C@@H](C(C)(C)O)CCN1c1ccc(C#N)c(Cl)c1F | 125 to 126 °C
29 | Nc1nc(-c2ccccc2)nc2c1=NCC(=O)N=2 | 330 to 332 °C
30 | O=C(Cc1cccc2ccccc12)Nc1cc([C@H]2C[C@@H](NC(=O)c3ccccc3)C2)[nH]n1 | 194 °C
31 | COc1cccc(CCC(=O)O)c1C | 143 to 147 °C
32 | Cc1cccc(-c2csc(N3CCN(C(=O)Nc4onc(C)c4C)CC3)n2)c1 | 175 to 176 °C
33 | CN(C)C1CCN(C(=O)C2CCC(Nc3nccc(-n4ccc5c(OCCCS(C)(=O)=O)cccc54)n3)CC2)CC1 (stereo unspecified) | 182 to 183 °C
34 | CN(Cc1ccccc1)S(=O)(=O)CC#N | 68 to 70 °C
35 | N#Cc1ccccc1-c1cccc(-n2cnc3cc(-c4cnco4)ccc32)c1 | 222 to 226 °C
36 | CCOP(=O)(CCNC(=O)c1c(CC)nc2cc(OC)c(OC)cc2c1-c1ccc(OC)c(OC)c1)OCC | 157 to 158 °C
37 | CCOC(=O)c1cc(C(=O)OCC)c(N)[nH]1 | 147 to 149 °C
38 | CC(=O)c1ccc2cc(N3CCNCC3)ccc2c1 | 170 to 172 °C

Row | SMILES | melting point
39 | CC(C)NC(=O)c1cc2ncn(C)c2c(Cl)c1NC(=O)c1cc(C(F)(F)F)nn1-c1ncccc1Cl | 150 to 155 °C
40 | O=C(C=Cc1ccc(N2CCCC2)cc1)c1ccc2c(c1)CCC2 | 162 to 164 °C
41 | COc1ccc(Cn2nc(CN3CCN(c4ccccc4OC)CC3)c3cc(OC)c(OC)cc32)cc1OC | 149 to 150 °C
42 | Cc1oc(-c2ccccc2)nc1COc1ccc(/C=C/C=O)cn1 | 147 to 148 °C
43 | Cc1cc2c(s1)CCCC1CC(=O)N(c3ccc(Cl)cc3)N=C21 (stereo unspecified) | 119 to 121 °C
44 | COC(=O)N1C2C3C=CC(C3OC(C)(C)C)C2N1C(=O)OC (stereo unspecified) | 86 °C
45 | OCc1ccccc1NC1CCN(Cc2ccccc2)CC1 | 164 to 168 °C
46 | Cn1ncc(C(=O)N2CCOCC2)c1C(=O)Nc1ccn2nc(-c3ccccc3)nc2c1 | 203 to 207 °C
47 | CSc1ccc(C(=O)c2ccc(F)cc2)[nH]1 | 112 to 113 °C
48 | CN(C)c1ccc(C2OC(C)(C)N=C2c2cccc(Cl)c2)cc1 (stereo unspecified) | 96 to 97 °C
49 | NC(=O)CC1CN=C(c2cc3cc(OC(F)(F)F)cc(NS(=O)(=O)c4cccs4)c3[nH]2)S1 (stereo unspecified) | 239 to 240 °C
50 | CCS(=O)(=O)N(Cc1cccnc1)c1ccc(Oc2ccccc2)cc1 | 79 to 80 °C
51 | O=C(O)c1ccc(-c2nnc(-c3ccccc3[N+](=O)[O-])o2)cc1 | 239 to 240 °C
52 | CN(C)CCCN(C(=O)Cc1ccccc1)c1ccccc1SCc1ccc(Cl)cc1 | 92 to 94 °C
53 | CS(=O)(=O)Nc1ccc2ccccc2c1-c1c(P(=O)(c2ccccc2)c2ccccc2)ccc2ccccc12 | 282 °C
54 | COc1ccc(C2CN(O)C3(c4ccccc4)CCCCC23)cc1OC (stereo unspecified) | 166 to 168 °C
55 | COc1nccc(C)c1NC(=O)c1cc(C)nc2c1c(C)nn2-c1ccccc1 | 172 to 174 °C
56 | CNC(=O)C[C@@H](c1ccccc1)c1c[nH]c2cccc(OC)c12 | 178 to 181 °C

Other lines, results leading:

Row | melting point | SMILES
57 | 245 to 247 °C | Cn1c2c(c3ccccc31)C(=O)C(CNC1=NCCN1)CS2 (stereo unspecified)
58 | 156 to 157 °C | CSc1c(O[C@@H]2CCC[C@H](N3C(=O)c4ccccc4C3=O)C2)ccc2[nH]ncc12 (relative stereo)
59 | 128 °C | CCCCC(CC)COc1cc(CO)c(-n2c3ccccc3c3ccccc32)cc1CO (stereo unspecified)
60 | 136 to 137 °C | CC(=O)C=Cc1ccccc1O
61 | 59 to 60 °C | C=C(C)C(=O)OCCOc1ccc(-c2ccccc2)cc1
62 | 118 to 119 °C | O=C(c1ccccc1)C(O)Cc1cccc(O)c1 (stereo unspecified)
63 | 156 to 158 °C | COc1ccc(N2C[C@@](C)(COC(=O)c3ccc([N+](=O)[O-])cc3)OC2=O)cc1
64 | 285 to 286 °C | CC(C)(C)c1cc(S)n2ncnc2n1
65 | 158 to 160 °C | N#Cc1cc(S(=O)(=O)c2ccc([N+](=O)[O-])cc2)cc(Br)n1
66 | 218 to 221 °C | O=C1Cc2cccc(S(=O)(=O)c3ccc(Cl)cc3)c2N1
67 | 97 to 100 °C | O=C(N1CCCCC12CCc1ccccc1C2=O)C(F)(F)F (stereo unspecified)
68 | 108 to 110 °C | COC(=O)c1c(CC(C)C)nc2ccc(Br)cc2c1-c1ccccc1
69 | 191 °C | N#Cc1c(O)csc1N1CCOCC1
70 | 48 to 50 °C | COC(=O)c1cc(I)ccc1OC
71 | 108 °C | COC(=O)/C(=C/C=C/c1cc2ccccc2o1)OC
72 | 210 to 212 °C | O=c1[nH]c2cc([N+](=O)[O-])ccc2c(=O)n1N1CC=C(c2ccc(Cl)cc2)CC1
73 | 49 to 52 °C | C=CC(=O)OC1CC(C)(C)N(OC2CCCCC2)C(C)(C)C1
74 | 99 to 100 °C | OC(c1ccc2c(c1)SCCN2)(C(F)(F)F)C(F)(F)F
75 | 101 to 102 °C | CN1CC(CCCl)Oc2cc3ccccc3cc2C1=O (stereo unspecified)
76 | 150 to 153 °C | CC(=O)N(Cc1ccccc1)c1c(F)c(F)cc(F)c1C(=O)O
77 | 162 to 165 °C | Sc1nncn1C1CCCCC1
78 | 223 to 226 °C | NC(=O)N1C(=O)Cc2cc(NC(=O)c3ccccc3)ccc21
79 | 320 °C | CCOC(=O)c1cn(C)c2cnc3c(F)c(F)ccc3c2c1=O

Row | melting point | SMILES
80 | 101 to 103 °C | CCCC[C@H](NC(=O)[C@@H](NC(=O)OCc1ccccc1)[C@@H](C)CC)C(=O)CSCc1ccco1
81 | 97 °C | COCc1nn(-c2cccc(NC(C)=O)c2)c(=O)n(Cc2ccc(Cl)cc2)c1=O
82 | 97 to 99 °C | COc1ccc([C@@H]2OC(=O)[C@H](C)N2C(=O)OCc2ccccc2)cc1
83 | 185 to 186 °C | CCCOc1ccccc1-c1nc2nc(NCCCO)ncc2c(=O)[nH]1
84 | 67 to 68 °C | N#Cc1ccc(-c2ccc(O)cc2)cc1F
85 | 152 to 153 °C | CCOc1cc(NC(=S)NS(=O)(=O)c2ccc(C)cc2)ccn1
86 | 81 to 82 °C | COc1ccc(C(=O)c2ccc(OCCc3nc(-c4ccccc4)oc3C)cc2)c(OC(C)(C)C(=O)O)c1
87 | 137 to 140 °C | c1ccc(OCc2ccc3ccccc3n2)c(OCCCc2nnn[nH]2)c1
88 | 120 to 122 °C | CS(=O)(=O)Nc1ccc(C(=O)CC(=O)C2CC2)c(Cl)c1
89 | 160 to 162 °C | O=C(O)CCCNc1ccnn1-c1c(Cl)cc(C(F)(F)F)cc1Cl
90 | 116 to 118 °C | CC(C)=CCNc1cccc(-c2ccnc3c(C(=O)c4cccs4)cnn23)c1
91 | 178 to 179 °C | CCOC(=O)c1c(O)c2cnc(-c3ccccc3)nc2n(CCOC)c1=O
92 | 150 to 154 °C | CCC1(c2cn(Cc3ccc(Cl)cc3)cn2)Cc2ccccc2C1=O (stereo unspecified)
93 | 246 to 248 °C | Cc1ccc(-n2c3c(c(=O)c4cccnc42)CCO3)cc1
94 | 136 to 137 °C | CC(C)C(SC(=O)c1ccccc1)C(=O)NCC(=O)O (stereo unspecified)
95 | 74 °C | C=C(C)C(=O)OCCN(C(=O)c1ccc(C(=O)O)cc1C(=O)O)C(C)(C)C
96 | 152 to 154 °C | O=c1c(CCl)cc2cc([N+](=O)[O-])ccc2n1-c1ccccc1
97 | 145 to 147 °C | COc1ccc(C(CC(C)=O)N2C(=O)c3cccc(NC(C)=O)c3C2=O)cc1OC1CCCC1 (stereo unspecified)
98 | 230 °C | N#Cc1c(Cl)csc1N
99 | 120 to 121 °C | CC1CN(Cc2ccccc2)Cc2c(C=O)c(-c3ccccc3)n(Cc3ccccc3)c21 (stereo unspecified)
100 | 235 to 245 °C | COc1ccc(C(=O)Nc2nc(-c3ccco3)c(-c3ccncc3)s2)cc1
101 | > 360 °C | N=C(N)Nc1nc(Cl)cc(Cl)n1
